Measured values: ChEMBL document CHEMBL1129171, “BMS-187257, a potent, selective, and novel heterocyclic 3 adrenergic receptor agonist” (Bioorg Med Chem Lett, 1996)
Calls of active or inactive are those of the source. No cut-off for these calls is given here.

What was measured:
[1] = biological target: T1, Beta-3 adrenergic receptor (Homo sapiens, UniProt P13945); assay: stimulation of adenylyl cyclase activity in CHO-beta-3 adrenergic receptor cell membrane; expressed as maximal cyclase activity as a fraction of (-)-isoproterenol (IA = 1).; format: functional
Target sequence in this assay (P13945 whole entry, looked up): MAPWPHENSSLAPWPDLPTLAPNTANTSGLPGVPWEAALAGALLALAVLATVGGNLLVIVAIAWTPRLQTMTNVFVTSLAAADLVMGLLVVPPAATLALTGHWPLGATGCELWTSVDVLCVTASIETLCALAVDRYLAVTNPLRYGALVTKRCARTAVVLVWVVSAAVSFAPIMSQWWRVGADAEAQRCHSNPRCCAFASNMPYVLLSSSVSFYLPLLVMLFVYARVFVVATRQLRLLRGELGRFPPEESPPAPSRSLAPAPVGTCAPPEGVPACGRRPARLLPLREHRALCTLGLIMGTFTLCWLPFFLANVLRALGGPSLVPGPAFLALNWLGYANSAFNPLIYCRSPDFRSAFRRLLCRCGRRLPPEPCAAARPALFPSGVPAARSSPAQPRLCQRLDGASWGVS

[2] = biological target: Beta-1 adrenergic receptor (Homo sapiens, UniProt P08588); assay: Compound was tested for its binding affinity against Beta-1 adrenergic receptor in CHO cell membrane using [125I]iodocyanopindolol as the radioligand.; format: cell membranes
[3] = biological target: T1, Beta-3 adrenergic receptor; assay: Compound was tested for its ability to stimulate adenylyl cyclase activity in CHO Beta-3 adrenergic receptor cell membrane.; format: functional
Target sequence in this assay (P13945 whole entry): as the sequence (P13945 whole entry, looked up) above

[4] = biological target: Beta-2 adrenergic receptor (Homo sapiens, UniProt P07550); assay: biochemical
Description: Compound was tested for its binding affinity against beta2 adrenergic receptor in CHO cell membrane using [125I]iodocyanopindolol as the radioligand.

[5] = biological target: T1, Beta-3 adrenergic receptor; assay: Compound was tested for its binding affinity against beta3 adrenergic receptor in CHO cell membrane using [125I]iodocyanopindolol as the radioligand.; format: cell membranes
Target sequence in this assay (P13945 whole entry): as the sequence (P13945 whole entry, looked up) above

[6] = biological target: T1, Beta-3 adrenergic receptor; assay: Compound was tested for its ability to stimulate adenylyl cyclase activity in CHO-beta-3 adrenergic receptor cell membrane.; format: functional
Target sequence in this assay (P13945 whole entry): as the sequence (P13945 whole entry, looked up) above

Chain of Beta-2 adrenergic receptor (P07550 whole entry): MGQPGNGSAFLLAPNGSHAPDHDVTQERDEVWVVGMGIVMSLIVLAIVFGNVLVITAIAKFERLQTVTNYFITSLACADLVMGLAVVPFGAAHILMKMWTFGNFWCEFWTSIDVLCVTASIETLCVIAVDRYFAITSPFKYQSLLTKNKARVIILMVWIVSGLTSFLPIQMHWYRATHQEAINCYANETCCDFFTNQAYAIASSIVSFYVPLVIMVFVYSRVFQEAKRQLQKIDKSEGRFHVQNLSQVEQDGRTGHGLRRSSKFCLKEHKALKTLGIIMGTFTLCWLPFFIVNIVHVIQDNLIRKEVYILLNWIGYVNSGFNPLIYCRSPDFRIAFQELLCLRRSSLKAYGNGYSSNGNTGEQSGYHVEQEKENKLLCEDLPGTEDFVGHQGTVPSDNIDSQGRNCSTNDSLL
Chain of Beta-1 adrenergic receptor (P08588 whole entry): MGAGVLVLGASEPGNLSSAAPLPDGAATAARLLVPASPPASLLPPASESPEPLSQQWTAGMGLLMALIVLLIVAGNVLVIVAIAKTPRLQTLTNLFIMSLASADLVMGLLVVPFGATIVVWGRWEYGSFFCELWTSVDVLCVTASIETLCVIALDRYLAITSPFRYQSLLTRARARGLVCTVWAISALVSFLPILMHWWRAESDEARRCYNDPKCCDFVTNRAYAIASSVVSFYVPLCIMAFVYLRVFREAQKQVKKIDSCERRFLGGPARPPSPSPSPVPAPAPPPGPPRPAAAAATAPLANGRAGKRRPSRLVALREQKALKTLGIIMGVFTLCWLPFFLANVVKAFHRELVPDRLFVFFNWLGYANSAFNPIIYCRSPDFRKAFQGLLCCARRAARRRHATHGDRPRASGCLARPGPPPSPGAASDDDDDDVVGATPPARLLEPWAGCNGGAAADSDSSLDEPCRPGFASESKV

SMILES | IA [1] | Ki [2] | EC50 [3] | Ki [4] | Ki [5] | EC50 [6]
C[C@H](Cc1ccc(OCC(=O)O)cc1)NC[C@H](O)c1cccc(Cl)c1 | 0.67 | – | – | – | – | –
C[C@H](Cc1ncc(CCCC(=O)O)s1)NC[C@H](O)COc1ccccc1 | 0.72 | 1.3 µM | 0.63 µM | 1.6 µM | 0.76 µM | –
C[C@H](Cc1ncc(CCC(=O)O)s1)NC[C@H](O)COc1ccccc1 | 0.56 | 3.44 µM | 2.76 µM | 1.23 µM | 3.53 µM | –
O=C(O)COc1ccc(OCCNC[C@H](O)COc2ccccc2)cc1 | 0.71 | – | – | – | 0.52 µM | 0.55 µM
C[C@H](Cc1ncc(CCCC(=O)O)s1)NCC(O)c1cccc(Cl)c1 (stereo partly specified) | – | 6.4 µM | – | 13.9 µM | 36.5 µM | –
C[C@H](Cc1ncc(CCC(=O)O)s1)NCC(O)c1cccc(Cl)c1 (stereo partly specified) | 0.39 | 58.1 µM | 27.6 µM | 11.4 µM | 146 µM | –
C[C@H](Cc1ncc(CCCCC(=O)O)s1)NC[C@H](O)COc1ccccc1 | inactive | 0.44 µM | – | 0.15 µM | 0.39 µM | –
